# In patent US20230203043A1, “NOVEL IMIDAZOPYRAZINE DERIVATIVES” (Hoffmann-La Roche Inc., priority 2020, published 2023):
# Structures can show the parent of a compound that is named as a salt. Where two headings read alike, the source gives them in different places.
# System: Acinetobacter baumannii ATCC17961
# Test: Antimicrobial susceptibility testing: 90% growth inhibitory concentration (IC90) determination in Iso-Sensitest broth, OD600 growth
# Format: cell-based
# Details: Acinetobacter baumannii, ATCC17961, 16 h
# Method: Antimicrobial Susceptibility Testing:
# 90% Growth Inhibitory Concentration (IC90) Determination
# The in vitro antimicrobial activity of the compounds was determined according to the following procedure:
# The assay used a 10-points Iso-Sensitest broth medium to measure quantitatively the in vitro activity of the compounds against Acinetobacter baumannii ATCC17961 or ATCC17968.
# Stock compounds in DMSO were serially twofold diluted (e.g. range from 50 to 0.097 μM final concentration) in 384 wells microtiter plates and inoculated with 49 μl the bacterial suspension in Iso-Sensitest medium to have a final cell concentration of ˜5×10^(5) CFU/ml in a final volume/well of 50 ul/well. Microtiter plates were incubated at 35±2° C.
# Bacterial cell growth was determined with the measurement of optical density at λ=600 nm each 20 minutes over a time course of 16 h. Growth inhibition was calculated during the logarithmic growth of the bacterial cells with determination of the concentration inhibiting 50% (IC50) and 90% (IC90) of the growth.
# Table 7 provides the 90% growth inhibitory concentrations (IC90) in micromoles per liter of the compounds of present invention obtained against the strain Acinetobacter baumannii ATCC17961 and/or ATCC17968.
# [1] = strain ATCC 17961, OD600 growth over 16 h, read-out: A. baumannii ATCC 17961 IC90
# [2] = read-out: A. baumannii ATCC 17961 IC90 (uM), strain ATCC 17961, OD600 growth over 16 h
SMILES,IC90 [1] [µM],IC90 [2] [µM]
"Cc1cc(Nc2nccn3c(-c4cn(CCF)nc4C(F)(F)F)cnc23)cc(F)c1C(=O)N[C@H](C)CN [Example 735, (R)-N-(1-aminopropan-2-yl)-2-fluoro-4-((3-(1-(2-fluoroethyl)-3-(trifluoromethyl)-1H-pyrazol-4-yl)imidazo[1,2-a]pyrazin-8-yl)amino)-6-methylbenzamide]",0.49,
"N#CCn1cc(-c2cnc3c(Nc4ccc(C(=O)N5CCN(C(=O)NCC6(O)CNC6)CC5)c(Cl)c4)nccn23)c(C(F)(F)F)n1 [Example 579, 4-(2-chloro-4-((3-(1-(cyanomethyl)-3-(trifluoromethyl)-1H-pyrazol-4-yl)imidazo[1,2-a]pyrazin-8-yl)amino)benzoyl)-N-((3-hydroxyazetidin-3-yl)methyl)piperazine-1-carboxamide formate]",,0.538
"N#CCn1cc(-c2cnc3c(Nc4ccc(C(=O)N5CCN(C(=O)C6CCNCC6)CC5)c(Cl)c4)nccn23)c(C(F)(F)F)n1 [Example 366, 2-[4-[8-[3-chloro-4-[4-(piperidine-4-carbonyl)piperazine-1-carbonyl]anilino]imidazo[1,2-a]pyrazin-3-yl]-3-(trifluoromethyl)pyrazol-1-yl]acetonitrile formate]",,0.296
"CCc1cc(Nc2nccn3c(-c4c[nH]nc4C(F)(F)F)cnc23)ccc1C(=O)NCCCNC(=O)NCCN [Example 193, N-[3-(2-aminoethylcarbamoylamino)propyl]-2-ethyl-4-[[3-[3-(trifluoromethyl)-1H-pyrazol-4-yl]imidazo[1,2-a]pyrazin-8-yl]amino]benzamide formate]",,0.244
"CCc1cc(Nc2nccn3c(-c4c[nH]nc4C(F)(F)F)cnc23)ccc1C(=O)NCCCNC(=O)CCCN [Example 215, N-[3-(4-aminobutanoylamino)propyl]-2-ethyl-4-[[3-[3-(trifluoromethyl)-1H-pyrazol-4-yl]imidazo[1,2-a]pyrazin-8-yl]amino]benzamide formate]",,0.394
"CCc1cc(Nc2nccn3c(-c4cn(CC#N)nc4C(F)(F)F)cnc23)ccc1C(=O)N[C@H](C)C(=O)NC1CC(N)C1 (stereo partly drawn) [Example 790, N-[(1R)-2-[(3-aminocyclobutyl)amino]-1-methyl-2-oxo-ethyl]-4-[[3-[1-(cyanomethyl)-3-(trifluoromethyl)pyrazol-4-yl]imidazo[1,2-a]pyrazin-8-yl]amino]-2-ethyl-benzamide formate]",,1.64

# Further lines, with some results ahead:
IC90 [1] [µM],SMILES,IC90 [2] [µM]
1.93,"C#CCn1cc(-c2cnc3c(Nc4ccc(C(=O)N5CCN(C(=O)CN)CC5)c(CC)c4)nccn23)c(C(F)F)n1 [Example 793, 2-amino-1-(4-(4-((3-(3-(difluoromethyl)-1-(prop-2-yn-1-yl)-1H-pyrazol-4-yl)imidazo[1,2-a]pyrazin-8-yl)amino)-2-ethylbenzoyl)piperazin-1-yl)ethan-1-one]",
0.746,"Cc1cc(Nc2nccn3c(-c4c[nH]nc4C(F)(F)F)cnc23)ccc1C(=O)N1CCN(C(=O)CCCN)CC1 [Example 420, 4-amino-1-[4-[2-methyl-4-[[3-[3-(trifluoromethyl)-1H-pyrazol-4-yl]imidazo[1,2-a]pyrazin-8-yl]amino]benzoyl]piperazin-1-yl]butan-1-one]",
0.184,"CCc1cc(Nc2nccn3c(-c4cn(CC(F)F)nc4C(F)(F)F)cnc23)ccc1C(=O)NCCNC(=O)N1CC[C@H](N)C1 [Example 489, (S)-3-amino-N-(2-(4-((3-(1-(2,2-difluoroethyl)-3-(trifluoromethyl)-1H-pyrazol-4-yl)imidazo[1,2-a]pyrazin-8-yl)amino)-2-ethylbenzamido)ethyl)pyrrolidine-1-carboxamide formate]",
0.257,"N#CCn1cc(-c2cnc3c(Nc4ccc(C(=O)N5CCN(C(=O)N[C@H]6C[C@@H](N)C6)CC5)c(Cl)c4)nccn23)c(C(F)(F)F)n1 [Example 584, N-((1s,3s)-3-aminocyclobutyl)-4-(2-chloro-4-((3-(1-(cyanomethyl)-3-(trifluoromethyl)-1H-pyrazol-4-yl)imidazo[1,2-a]pyrazin-8-yl)amino)benzoyl) piperazine-1-carboxamide formate]",
